The record followed here is patent EP0019589A1, “Tripeptide derivatives and their use in a process for determining enzymes” (Pentapharm A.G., priority 1979, dated 1980).

Non-standard residues stand in square brackets, D forms with d. Residues, ends and D or L forms follow the SMILES beside them. *: point of attachment. Cha = N[C@@H](CC1CCCCC1)C(=O)O; dChg = N[C@@H](C(=O)O)C1CCCCC1; dPhg = N[C@@H](C(=O)O)c1ccccc1; pNA = O=[N+]([O-])c1ccc(N*)cc1

Holding throughout (type): biochemical
One assay has as its target T1, Urinkallikrein (Homo sapiens, UniProt P06870).
T1 construct: 1 ml Urin und 1 ml TRIS-Imidazol-Puffer mit pH 7,9; from tissue; host or cells: human urine
Description: Cleavage of chromogenic substrate by urinary kallikrein in human urine. As to conditions: 1 ml human urine (pooled morning urine of healthy persons), per min; Substratkonzentration 2 x 10^-4 molar. Here is the method:
1. Bestimmung von Urinkallikrein.
1 ml Urin und 1 ml TRIS-Imidazol-Puffer mit pH 7,9 und Ionenstärke 1,0 werden 5 Min. bei 37°C inkubiert undcänn zentrifugiert, um Sedimente zu entfernen.
In einer-Plastikküvette werden 1,4 ml dest. H20 von 37°C und 0,4 ml des Zentrifugats gut gemischt. Zu dieser Mischung gibt man 0,2 ml einer 2 x 10^-3 molaren wässrigen Substratlösung und durchmischt die Komponenten schnell. Dieses Gemisch wird genau 15 Min. bei 37°C inkubiert. Dann wird dem Reaktionsgemisch 0,2 ml Eisessig zugemischt, um die Enzymreaktion zu unterbrechen. Zur Farbmessung verwendet man eine Vergleichsprobe (Blindprobe), die aus den gleichen Komponenten zusammengesetzt ist, wobei jedoch der Eisessig vor Zugabe des Substrates zugesetzt wird, um die Enzymreaktion zu verhindern. Dann wird bei 405 nm photometrisch oder spektrophotometrisch die Menge der gebildeten farbigen Verbindung RNH 2 aus der Differenz zwischen der Blindprobe und der zu bestimmenden Probe ermittelt. Aus dem ermittelten Wert wird die Urinkallikreinaktivität im Urin nach der folgenden Formel berechnet: [formula] • Δ OD = Zunahme der optischen Dichte bei 405 nm während 15 Min. • V = Totalvolumen des Bestimmungsansatzes = 2,2 ml • 1000 = Umrechnungsfaktor zur Umwandlung von U in mU • F = Verdünnungsfaktor des Urins (2) • v = Volumen der Probe = 0,4 ml • ε = Extinktionskoeffizient dividiert durch 1000 = 10,4
Bei der oben beschriebenen Bestimmungsmethode misst man somit die Summe der Aktivitäten von Urinkallikrein und Urokinase. Um die genaue Urinkallikreinaktivität zu erhalten, muss man die Urokinaseaktivität abziehen, welche dadurch bestimmt werden kann, dass man in einem Vergleichsversuch durch Zugabe von 0,075 Einheiten Trypsininhibitor (Trypsininhibitor aus Rinderlunge) pro ml Puffer die Urinkallikreinaktivität vollständig hemmt und nur die Urokinaseaktivität misst.
(§1) Bei der Messung des durch die enzymatische Hydrolyse des Substrates gebildeten Spaltproduktes RrNH2 geht man von der Voraussetzung aus, dass das Spaltprodukt ein UV-Spektrum besitzt, das von demjenigen des Substrates verschieden und in Richtung höherer Wellenlängen verschoben ist. Die Absorption des Substrates bei 405 nm ist praktisch Null. p-Nitroanilin als Spaltprodukt weist ein Absorptionsmaximum bei 380 nm und einen molaren Extinktionskoeffizienten von 13'200 auf. Bei 405 nm ist der Extinktionskoeffizient nur wenig niedriger, d.h. […] Der Grad der enzymatischen Hydrolyse des Substrates, welcher der Menge des abgespaltenen p-Nitroanilins proportional ist, lässt sich durch spektrophotometrische Messung bei 405 nm bestimmen. Auch bei Anwesenheit eines Ueberschusses an Substrat wird die Messung bei 405 nm nicht gestört.
(§2) Bei den Substraten, die als chromogene Gruppe eine 2-Naphthylamino-, 4-Methoxy-2-naphthylamino-, 4-Methyl-cumaryl-(7)-amino- oder 1,3-Di(methoxycarbonyl)-phenyl-(5)-amino-Gruppe enthalten, wird die Menge des Spaltproduktes R-NH2 durch Fluoreszenzspektrophotometrie gemessen. In einem aus Enzym, Puffer und Substrat bestehenden Testsystem misst man kontinuierlich das energieärmere emittierte Licht bei 400-470 nm, nachdem man das gebildete fluoreszierende Spaltprodukt mit energiereicherem Licht erregt hat. Die pro Zeiteinheit gebildete Menge Spaltprodukt ist ein Mass für die vorhandene Enzymaktivität. 1 µMol Spaltprodukt pro Minute entspricht definitionsgemäss 1 Enzym-Einheit, bezogen auf ein gegebenes Substrat.

Assay [1] addresses T2, Submandibularis-Kallikrein (Homo sapiens, UniProt P06870).
T2 construct: Man mischt 0,5 ml Sputum mit 2 ml TRIS-Imidazol-Puffer; from tissue; host or cells: human sputum
Description: Cleavage of chromogenic substrate by submandibular (glandular) kallikrein in human sputum. The note with it: 1 ml human sputum, per min; Substratkonzentration 2 x 10^-4 molar. As for the experimental part: 2. Bestimmung des Glandulärkallikreins im Sputum: • Man mischt 0,5 ml Sputum mit 2 ml TRIS-Imidazol-Puffer (Ionenstärke 1,0) und präinkubiert die Mischung 5 Min. bei 37°C. Das Inkubat wird zentrifugiert. In eine Testküvette wird 1,5 ml dest. H2O von 37°C vorgelegt und mit 0,25 ml des Zentrifugats versetzt. Die Komponenten werden gut gemischt. Dann wird 0,2 ml 2 x 10-^3 molare wässrige Substratlösung zugesetzt und gemischt. Dann wird bei 405 nm die Extinktions- änderung kontinuierlich mittels eines Schreibers während 5-10 Min. verfolgt. Aus dem ermittelten Δ OD pro Min. wird mittels der nachstehenden Formel die Kallikreinaktivität pro ml Sputum in mU errechnet: [formula] • F = 5 • V = 1,95 • v = 0,25 • 1 U (Einheit) = Enzymmenge, die während 1 Min. 1 µMol Substrat unter optimalen oder sonst festgelegten Bedingungen in Bezug auf pH, Ionenstärke, Temperatur und Substratkonzentration zu spalten vermag
as §1, with “gestört. […]” for “gestört.”

The target in the next assay is T3, Humanplasmin (Homo sapiens, UniProt P00747).
T3 construct: da bei der Aktivierung aus 1 Molekül Plasminogen 1 Molekül Plasmin entsteht
Description: Cleavage of chromogenic substrate by human plasmin. The note with it: 1 CU-Einheit human plasmin, per min; Substratkonzentration 2 x 10^-4 molar. As for the experimental part: 3. Bestimmung von Plasmin:
Man mischt 1,7 ml TRIS-Imidazol-Puffer (pH 7,5, Ionenstärke 0,2) bei 37°C mit 0,1 ml einer Lösung von Plasmin in 25%igem Glycerin und inkubiert die Mischung während 1 Min. bei 37°C. Dann gibt man der Mischung 0,2 ml einer wässrigen 2 x 10^-3 molaren Substxatlösung von 37°C zu und durchmischt das Ganze schnell. Man ermittelt dann kontinuierlich die pro Zeiteinheit aus dem Substrat freigesetzte Menge des Spaltproduktes R-NH2. Aus dem pro Min. ermittelten Wert berechnet man dann die Plasminaktivität pro ml Probe in mU nach der folgenden Formel: [formula] • ΔE = pro Min. freigesetzte Menge des Spaltproduktes • V = Totalvolumen des Testansatzes • v = Volumen der Probe • = Extinktionskoeffizient dividiert durch 1000
as §1, §2

A further assay has as its target T4, Humanthrombin (Homo sapiens, UniProt P00734).
T4 construct: Humanplasmin und hu-manem NIH-Thrombin
Description: Cleavage of chromogenic substrate by human NIH thrombin. As to conditions: 1 NIH-Einheit human thrombin, per min; Substratkonzentration 2 x 10^-4 molar.
Text: as §1, §2

T3 sequence (P00747 581-810 limits assumed): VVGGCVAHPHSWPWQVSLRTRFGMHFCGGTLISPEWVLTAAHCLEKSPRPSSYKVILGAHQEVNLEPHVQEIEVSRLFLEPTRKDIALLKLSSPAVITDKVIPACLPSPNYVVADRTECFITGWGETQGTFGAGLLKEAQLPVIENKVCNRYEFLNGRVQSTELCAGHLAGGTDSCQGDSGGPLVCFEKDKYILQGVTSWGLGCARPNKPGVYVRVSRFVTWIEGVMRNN
T3 sequence (P00747 97-580 partner limits assumed): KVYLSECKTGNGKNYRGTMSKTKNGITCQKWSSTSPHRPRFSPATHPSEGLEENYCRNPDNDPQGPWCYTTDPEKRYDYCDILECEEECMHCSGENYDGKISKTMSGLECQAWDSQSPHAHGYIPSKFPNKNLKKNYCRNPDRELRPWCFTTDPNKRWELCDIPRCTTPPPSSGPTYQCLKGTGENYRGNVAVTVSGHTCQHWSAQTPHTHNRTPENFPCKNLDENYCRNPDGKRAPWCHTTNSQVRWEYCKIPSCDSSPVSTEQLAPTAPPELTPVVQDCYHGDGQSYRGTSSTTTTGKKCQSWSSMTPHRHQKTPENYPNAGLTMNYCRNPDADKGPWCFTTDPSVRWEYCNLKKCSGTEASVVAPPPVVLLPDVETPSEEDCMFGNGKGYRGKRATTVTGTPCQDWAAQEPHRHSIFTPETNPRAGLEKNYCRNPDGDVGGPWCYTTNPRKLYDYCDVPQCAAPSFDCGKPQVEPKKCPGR
T2 sequence (P06870 25-262): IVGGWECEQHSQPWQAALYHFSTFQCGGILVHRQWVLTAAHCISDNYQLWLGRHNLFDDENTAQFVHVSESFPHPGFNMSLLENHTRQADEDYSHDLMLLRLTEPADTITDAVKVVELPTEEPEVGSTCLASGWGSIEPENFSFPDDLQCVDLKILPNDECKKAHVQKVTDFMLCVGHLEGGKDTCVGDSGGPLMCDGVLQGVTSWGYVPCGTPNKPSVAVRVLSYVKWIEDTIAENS
T1 sequence (P06870 25-262): as above

Regarding 2HBr.H-D-CHT-Pro-Arg-pNA [Beispiel 23], the “Menge des durch 1 ml Humanurin pro Min. freigesetzten Spaltproduktes R-NH2 in Nanomol (Urinkallikrein)” value at Urinkallikrein was 1,20 Nanomol. Besides, the “Menge des durch 1 ml Humansputum pro Min. freigesetzten Spaltproduktes R-NH2 in Nanomol (Submandibularis-Kallikrein)” value in assay [1] was 21,4 Nanomol. Further, the “Menge des durch 1 CU-Einheit Humanplasmin pro Min. freigesetzten Spaltproduktes R-NH2 in Nanomol (Humanplasmin)” value on Humanplasmin was found to be 690 Nanomol. Moreover, the “Menge des durch 1 NIH-Einheit Thrombin pro Min. freigesetzten Spaltproduktes R-NH2 in Nanomol (Humanthrombin)” value at Humanthrombin was 45,8 Nanomol.
Turning to 2HBr.H-D-CHT-Tyr-Arg-pNA [Beispiel 45], the “Menge des durch 1 ml Humanurin pro Min. freigesetzten Spaltproduktes R-NH2 in Nanomol (Urinkallikrein)” value on Urinkallikrein was 0,59 Nanomol. Besides, the “Menge des durch 1 ml Humansputum pro Min. freigesetzten Spaltproduktes R-NH2 in Nanomol (Submandibularis-Kallikrein)” value in assay [1] is on record as 10,9 Nanomol. Besides, the “Menge des durch 1 CU-Einheit Humanplasmin pro Min. freigesetzten Spaltproduktes R-NH2 in Nanomol (Humanplasmin)” value at Humanplasmin was found to be 1252 Nanomol. For the same compound, the “Menge des durch 1 NIH-Einheit Thrombin pro Min. freigesetzten Spaltproduktes R-NH2 in Nanomol (Humanthrombin)” value on Humanthrombin is on record as 9,5 Nanomol.
`N=C(N)NCCC[C@H](NC(=O)[C@H](CC1CCCCC1)NC(=O)[C@H](N)C1CCCCC1)C(=O)Nc1ccc([N+](=O)[O-])cc1` [Beispiel 1, H-D-CHG-CHA-Arg-pNA.2HBr] (H-[dChg]-[Cha]-Arg-pNA): the “Menge des durch 1 ml Humanurin pro Min. freigesetzten Spaltproduktes R-NH2 in Nanomol (Urinkallikrein)” value on Urinkallikrein was 0,84 Nanomol. Besides, the “Menge des durch 1 ml Humansputum pro Min. freigesetzten Spaltproduktes R-NH2 in Nanomol (Submandibularis-Kallikrein)” value in assay [1] is reported as 12,9 Nanomol. Moreover, the “Menge des durch 1 CU-Einheit Humanplasmin pro Min. freigesetzten Spaltproduktes R-NH2 in Nanomol (Humanplasmin)” value at Humanplasmin came out at 699 Nanomol. In addition, the “Menge des durch 1 NIH-Einheit Thrombin pro Min. freigesetzten Spaltproduktes R-NH2 in Nanomol (Humanthrombin)” value on Humanthrombin was 8,27 Nanomol.
The corresponding values for `CC(C)C[C@H](NC(=O)[C@H](N)C1CCCCC1)C(=O)N[C@@H](CCCNC(=N)N)C(=O)Nc1ccc([N+](=O)[O-])cc1` [Beispiel 11, 2HBr.H-D-CHG-Leu-Arg-pNA] (H-[dChg]-Leu-Arg-pNA) are 0,60 Nanomol, 11,6 Nanomol, 381 Nanomol and 33,9 Nanomol.
The corresponding values for `CC(C)[C@@H](N)C(=O)N[C@@H](CC1CCCCC1)C(=O)N[C@@H](CCCNC(=N)N)C(=O)Nc1ccc([N+](=O)[O-])cc1` [Beispiel 12, 2HBr.H-D-Val-CHA-Arg-pNA] (H-[dV]-[Cha]-Arg-pNA) are 2,75 Nanomol, 30,5 Nanomol, 421 Nanomol and 4,0 Nanomol.
Consider `CC[C@@H](C)[C@@H](N)C(=O)N[C@@H](CC1CCCCC1)C(=O)N[C@@H](CCCNC(=N)N)C(=O)Nc1ccc([N+](=O)[O-])cc1` [Beispiel 13, 2HBr.H-D-Ile-CHA-Arg-pNA] (H-[dI]-[Cha]-Arg-pNA), for which, on Urinkallikrein, the “Menge des durch 1 ml Humanurin pro Min. freigesetzten Spaltproduktes R-NH2 in Nanomol (Urinkallikrein)” value was 2,67 Nanomol. The “Menge des durch 1 ml Humansputum pro Min. freigesetzten Spaltproduktes R-NH2 in Nanomol (Submandibularis-Kallikrein)” value in assay [1] is 36,6 Nanomol. On Humanplasmin, the “Menge des durch 1 CU-Einheit Humanplasmin pro Min. freigesetzten Spaltproduktes R-NH2 in Nanomol (Humanplasmin)” value amounted to 446 Nanomol. Moreover, on Humanthrombin, the “Menge des durch 1 NIH-Einheit Thrombin pro Min. freigesetzten Spaltproduktes R-NH2 in Nanomol (Humanthrombin)” value is given as 7,44 Nanomol.
As to `CC(C)[C@@H](N)C(=O)N[C@@H](CC1CCCCC1)C(=O)N[C@@H](CCCCN)C(=O)Nc1ccc([N+](=O)[O-])cc1` [Beispiel 14, 2HBr.H-D-Val-CHA-Lys-pNA] (H-[dV]-[Cha]-Lys-pNA), at Urinkallikrein, the “Menge des durch 1 ml Humanurin pro Min. freigesetzten Spaltproduktes R-NH2 in Nanomol (Urinkallikrein)” value is 1,02 Nanomol. Further, the “Menge des durch 1 ml Humansputum pro Min. freigesetzten Spaltproduktes R-NH2 in Nanomol (Submandibularis-Kallikrein)” value in assay [1] is recorded as 6,7 Nanomol. For the same compound, the “Menge des durch 1 CU-Einheit Humanplasmin pro Min. freigesetzten Spaltproduktes R-NH2 in Nanomol (Humanplasmin)” value at Humanplasmin was 505 Nanomol. The “Menge des durch 1 NIH-Einheit Thrombin pro Min. freigesetzten Spaltproduktes R-NH2 in Nanomol (Humanthrombin)” value at Humanthrombin is 0,35 Nanomol.
In the same order, the values of `CC[C@@H](C)[C@@H](N)C(=O)N[C@@H](CC1CCCCC1)C(=O)N[C@@H](CCCCN)C(=O)Nc1ccc([N+](=O)[O-])cc1` [Beispiel 15, 2HBr.H-D-Ile-CHA-Lys-pNA] (H-[dI]-[Cha]-Lys-pNA) are 2,50 Nanomol, 23,1 Nanomol, 440 Nanomol and 0,39 Nanomol.
In the case of `N=C(N)NCCC[C@H](NC(=O)[C@H](Cc1ccccc1)NC(=O)[C@H](N)C1CCCCC1)C(=O)Nc1ccc([N+](=O)[O-])cc1` [Beispiel 16, 2HBr.H-D-CHG-Phe-Arg-pNA] (H-[dChg]-Phe-Arg-pNA), on Urinkallikrein, the “Menge des durch 1 ml Humanurin pro Min. freigesetzten Spaltproduktes R-NH2 in Nanomol (Urinkallikrein)” value is recorded as 3,31 Nanomol. Further, the “Menge des durch 1 ml Humansputum pro Min. freigesetzten Spaltproduktes R-NH2 in Nanomol (Submandibularis-Kallikrein)” value in assay [1] is 32,2 Nanomol. For the same compound, the “Menge des durch 1 CU-Einheit Humanplasmin pro Min. freigesetzten Spaltproduktes R-NH2 in Nanomol (Humanplasmin)” value on Humanplasmin stood at 1200 Nanomol. On Humanthrombin, the “Menge des durch 1 NIH-Einheit Thrombin pro Min. freigesetzten Spaltproduktes R-NH2 in Nanomol (Humanthrombin)” value is 17,1 Nanomol.
For the compound `N=C(N)NCCC[C@H](NC(=O)[C@H](CC1CCCCC1)NC(=O)[C@H](N)c1ccccc1)C(=O)Nc1ccc([N+](=O)[O-])cc1` [Beispiel 18, 2HBr.H-D-Ph'Gly-CHA-Arg-pNA] (H-[dPhg]-[Cha]-Arg-pNA), the “Menge des durch 1 ml Humanurin pro Min. freigesetzten Spaltproduktes R-NH2 in Nanomol (Urinkallikrein)” value at Urinkallikrein was 0,67 Nanomol. The “Menge des durch 1 ml Humansputum pro Min. freigesetzten Spaltproduktes R-NH2 in Nanomol (Submandibularis-Kallikrein)” value in assay [1] was 8,5 Nanomol. Besides, the “Menge des durch 1 CU-Einheit Humanplasmin pro Min. freigesetzten Spaltproduktes R-NH2 in Nanomol (Humanplasmin)” value on Humanplasmin is given as 1200 Nanomol. For the same compound, at Humanthrombin, the “Menge des durch 1 NIH-Einheit Thrombin pro Min. freigesetzten Spaltproduktes R-NH2 in Nanomol (Humanthrombin)” value is 4,53 Nanomol.
